Data published in ChEMBL document CHEMBL1201862, “PubChem BioAssay data set” (2004).
Activity calls are given as the source filed them.

What was measured:
[1] = tested on: HEK293; experiment: inhibitors of LMP1-driven NF-kB reporter, dose response, cell-based, HEK293, luciferase, cherry-pick (AID 588343); type: functional; settings: Homo sapiens
[2] = tested on: Escherichia coli; experiment: microbe, parasite or virus in culture
[3] = target: T1, Carboxy-terminal domain RNA polymerase II polypeptide A small phosphatase 1 (Homo sapiens, UniProt Q9GZU7); experiment: inhibitors of CTDSP1, concentration-response testing, biochemical assay, absorbance-based, actives from ultra-high-throughput screening (AID 540297); type: functional
T1 sequence (Q9GZU7 whole entry): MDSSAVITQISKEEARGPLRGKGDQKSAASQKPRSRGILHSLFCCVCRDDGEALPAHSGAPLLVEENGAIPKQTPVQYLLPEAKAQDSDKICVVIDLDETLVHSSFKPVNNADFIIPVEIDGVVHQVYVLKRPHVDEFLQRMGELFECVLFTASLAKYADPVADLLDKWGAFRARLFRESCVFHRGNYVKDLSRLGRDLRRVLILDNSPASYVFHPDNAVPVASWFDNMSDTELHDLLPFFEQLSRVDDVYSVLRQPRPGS

[4] = target: T2, Zinc finger protein mex-5 (Caenorhabditis elegans, UniProt Q9XUB2); experiment: MEX-5/TCR-2 RNA interaction inhibitors, dose response, biochemical, C. elegans, fluorescence polarization (AID 1960)
T2 sequence (Q9XUB2 whole entry): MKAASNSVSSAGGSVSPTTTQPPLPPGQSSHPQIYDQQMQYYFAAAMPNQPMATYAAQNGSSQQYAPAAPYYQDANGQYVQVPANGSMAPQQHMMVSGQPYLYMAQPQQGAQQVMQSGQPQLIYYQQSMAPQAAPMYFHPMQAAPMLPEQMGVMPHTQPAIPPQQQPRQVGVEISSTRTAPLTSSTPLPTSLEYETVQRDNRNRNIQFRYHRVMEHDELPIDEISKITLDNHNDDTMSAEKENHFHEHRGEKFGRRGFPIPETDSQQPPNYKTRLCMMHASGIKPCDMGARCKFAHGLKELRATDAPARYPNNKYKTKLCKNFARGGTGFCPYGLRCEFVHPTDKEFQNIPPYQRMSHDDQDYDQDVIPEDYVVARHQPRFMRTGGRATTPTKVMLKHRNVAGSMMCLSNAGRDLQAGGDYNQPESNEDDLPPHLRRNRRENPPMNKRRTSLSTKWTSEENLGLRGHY

[5] = target: T3, RNA-binding protein pos-1 (Caenorhabditis elegans, UniProt G5EF15); experiment: inhibitors of POS-1/mex-3 RNA binding, dose response, biochemical, fluorescence polarization (AID 1964);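 also: purified POS-1 fused to maltose binding protein made in E. coli; potency of compounds blocking POS-1 binding to fluorescent RNA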
T3 sequence (G5EF15 whole entry): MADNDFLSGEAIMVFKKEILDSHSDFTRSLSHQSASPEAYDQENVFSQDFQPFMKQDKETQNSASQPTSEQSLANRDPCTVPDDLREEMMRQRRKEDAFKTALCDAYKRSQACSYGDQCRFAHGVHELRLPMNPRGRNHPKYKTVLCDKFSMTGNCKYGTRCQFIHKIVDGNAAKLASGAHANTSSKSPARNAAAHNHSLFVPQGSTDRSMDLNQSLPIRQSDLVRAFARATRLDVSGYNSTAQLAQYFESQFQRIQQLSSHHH

[6] = target: T4, Histone-lysine N-methyltransferase NSD2 (Homo sapiens, UniProt O96028); type: biochemical
T4 sequence (O96028 whole entry): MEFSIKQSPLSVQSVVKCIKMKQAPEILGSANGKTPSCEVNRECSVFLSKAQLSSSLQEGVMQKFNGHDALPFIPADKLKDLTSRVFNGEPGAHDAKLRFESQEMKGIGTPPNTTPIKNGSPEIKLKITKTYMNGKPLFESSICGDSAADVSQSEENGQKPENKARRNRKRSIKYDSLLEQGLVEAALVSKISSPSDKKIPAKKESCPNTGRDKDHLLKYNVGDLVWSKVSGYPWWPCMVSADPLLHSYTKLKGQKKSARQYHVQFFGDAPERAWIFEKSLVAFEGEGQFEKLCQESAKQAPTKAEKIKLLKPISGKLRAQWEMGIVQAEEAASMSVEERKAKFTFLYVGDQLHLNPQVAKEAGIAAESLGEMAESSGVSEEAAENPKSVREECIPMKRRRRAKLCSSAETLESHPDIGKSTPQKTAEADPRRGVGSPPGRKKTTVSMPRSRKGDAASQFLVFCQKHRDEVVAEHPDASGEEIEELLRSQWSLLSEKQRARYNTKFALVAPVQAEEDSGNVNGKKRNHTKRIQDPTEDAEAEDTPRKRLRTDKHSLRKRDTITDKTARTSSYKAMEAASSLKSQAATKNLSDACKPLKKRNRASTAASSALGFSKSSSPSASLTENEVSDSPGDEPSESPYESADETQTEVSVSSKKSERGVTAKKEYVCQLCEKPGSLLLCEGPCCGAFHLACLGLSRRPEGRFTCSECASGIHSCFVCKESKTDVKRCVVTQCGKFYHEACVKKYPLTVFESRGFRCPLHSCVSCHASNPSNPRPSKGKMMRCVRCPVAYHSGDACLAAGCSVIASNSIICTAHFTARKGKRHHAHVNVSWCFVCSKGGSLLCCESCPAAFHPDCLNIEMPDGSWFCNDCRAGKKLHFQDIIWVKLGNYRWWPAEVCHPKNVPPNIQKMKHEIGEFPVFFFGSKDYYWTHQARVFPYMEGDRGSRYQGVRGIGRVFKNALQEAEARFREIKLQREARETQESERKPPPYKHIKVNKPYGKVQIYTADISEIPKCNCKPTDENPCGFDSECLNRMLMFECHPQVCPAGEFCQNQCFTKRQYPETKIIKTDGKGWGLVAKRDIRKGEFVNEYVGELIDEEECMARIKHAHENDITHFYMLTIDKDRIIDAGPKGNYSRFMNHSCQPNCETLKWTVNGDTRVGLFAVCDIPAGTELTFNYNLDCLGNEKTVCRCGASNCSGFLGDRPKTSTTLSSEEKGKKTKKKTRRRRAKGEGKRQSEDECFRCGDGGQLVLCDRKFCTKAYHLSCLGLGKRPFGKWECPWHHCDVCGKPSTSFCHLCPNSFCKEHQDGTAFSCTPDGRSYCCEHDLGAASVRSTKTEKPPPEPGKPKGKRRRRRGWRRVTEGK

[7] = target: T5, Neuropeptide Y receptor type 1 (Homo sapiens, UniProt P25929); type: functional;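 also: HEK293 cells with a CNG channel challenged with NPY then isoproterenol; potency as antagonist that reverses NPY suppression of cAMP signal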
T5 sequence (P25929 whole entry): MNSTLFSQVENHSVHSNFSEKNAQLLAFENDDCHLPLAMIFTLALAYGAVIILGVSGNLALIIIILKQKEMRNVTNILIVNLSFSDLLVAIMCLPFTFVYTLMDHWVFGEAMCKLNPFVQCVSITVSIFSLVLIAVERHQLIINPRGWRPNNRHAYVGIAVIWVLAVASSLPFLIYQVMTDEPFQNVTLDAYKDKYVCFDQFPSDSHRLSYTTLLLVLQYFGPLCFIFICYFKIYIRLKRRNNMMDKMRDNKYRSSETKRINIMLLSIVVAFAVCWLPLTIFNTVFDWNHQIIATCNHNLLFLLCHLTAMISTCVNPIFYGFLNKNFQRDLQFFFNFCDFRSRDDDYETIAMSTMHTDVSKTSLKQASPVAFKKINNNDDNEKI

[8] = target: T6, Cysteine protease ATG4B (Homo sapiens, UniProt Q9Y4P1); type: functional;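 also: Fluorescence-based dose-response confirmation assay measuring inhibition of ATG4B activity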
T6 sequence (Q9Y4P1 whole entry): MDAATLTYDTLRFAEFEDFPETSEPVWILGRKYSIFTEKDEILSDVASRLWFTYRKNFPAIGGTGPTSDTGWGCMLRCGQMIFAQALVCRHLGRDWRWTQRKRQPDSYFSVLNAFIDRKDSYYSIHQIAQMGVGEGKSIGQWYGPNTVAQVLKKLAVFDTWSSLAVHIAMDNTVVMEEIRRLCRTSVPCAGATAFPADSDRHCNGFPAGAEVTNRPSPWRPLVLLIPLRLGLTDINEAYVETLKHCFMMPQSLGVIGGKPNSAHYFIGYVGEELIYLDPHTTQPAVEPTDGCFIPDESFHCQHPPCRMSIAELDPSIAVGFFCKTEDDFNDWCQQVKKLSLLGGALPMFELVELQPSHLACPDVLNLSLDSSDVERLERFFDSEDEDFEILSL

[9] = target: T7, Neuropeptide Y receptor type 2 (Homo sapiens, UniProt P49146); type: functional, cell-based;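 also: HEK293 cells expressing the receptor and a CNG channel; stimulus was NPY near EC95 followed by isoproterenol to raise cAMP; antagonist potency measured as restoring cAMP signal that NPY suppresses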
T7 sequence (P49146 whole entry): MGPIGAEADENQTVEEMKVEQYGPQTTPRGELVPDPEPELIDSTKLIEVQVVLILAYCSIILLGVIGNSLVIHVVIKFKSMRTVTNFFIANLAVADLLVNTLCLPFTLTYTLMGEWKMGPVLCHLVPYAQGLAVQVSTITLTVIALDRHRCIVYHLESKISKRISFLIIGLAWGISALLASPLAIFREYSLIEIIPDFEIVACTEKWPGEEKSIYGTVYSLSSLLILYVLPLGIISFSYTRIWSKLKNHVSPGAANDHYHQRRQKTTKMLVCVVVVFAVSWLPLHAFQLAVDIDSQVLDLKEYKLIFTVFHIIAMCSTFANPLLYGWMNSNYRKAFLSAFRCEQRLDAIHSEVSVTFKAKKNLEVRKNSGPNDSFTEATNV

[10] = target: Phospholipase A2 (Homo sapiens, UniProt P04054); type: functional;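 also: confirmatory dose-response counterscreen on phospholipase A2, testing hits that came from an ultra-high-throughput screen for ATG4B inhibitors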
Phospholipase A2, sequence (P04054 whole entry): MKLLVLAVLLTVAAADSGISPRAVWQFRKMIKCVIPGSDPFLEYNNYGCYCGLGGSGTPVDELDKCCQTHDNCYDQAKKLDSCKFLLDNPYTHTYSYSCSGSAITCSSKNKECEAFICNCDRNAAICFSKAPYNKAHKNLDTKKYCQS

[11] = target: T8, Endoribonuclease toxin MazF (Escherichia coli K-12, UniProt P0AE70); experiment: fluorescent RNA oligo signal without MazF, dose response, counter-screen for MazEF activator project, biochemical, fluorescence, single-stranded RNase substrate (AID 588502); type: functional
T8 sequence (P0AE70 whole entry): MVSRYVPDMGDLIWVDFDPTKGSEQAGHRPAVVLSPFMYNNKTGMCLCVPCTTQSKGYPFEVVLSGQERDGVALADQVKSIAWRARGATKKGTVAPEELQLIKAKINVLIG

[12] = target: T8, Endoribonuclease toxin MazF; experiment: MazF toxin RNase activators, dose response, biochemical, fluorescence, single-stranded RNA substrate, uHTS hits (AID 588481); type: functional
[13] = target: T9, Mitochondrial peptide methionine sulfoxide reductase (Bos taurus, UniProt P54149); experiment: Absorbance-based biochemical high throughput dose response assay for activators of Methionine sulfoxide reductase A (MsrA).; type: functional
T9 sequence (P54149 whole entry): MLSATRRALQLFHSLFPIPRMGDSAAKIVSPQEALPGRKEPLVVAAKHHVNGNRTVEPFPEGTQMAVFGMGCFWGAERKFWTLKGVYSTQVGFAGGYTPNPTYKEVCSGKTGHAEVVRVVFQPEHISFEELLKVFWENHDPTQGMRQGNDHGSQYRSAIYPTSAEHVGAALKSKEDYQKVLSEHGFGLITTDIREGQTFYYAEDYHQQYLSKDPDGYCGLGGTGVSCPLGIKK

[14] = target: DNA dC->dU-editing enzyme APOBEC-3G (Homo sapiens, UniProt Q9HC16); experiment: SAR analysis of small molecule inhibitors of APOBEC3G DNA Deaminase via a fluorescence-based single-stranded DNA deaminase assay - Set 2.; type: functional; settings: read-out: IC50_Mean
DNA dC->dU-editing enzyme APOBEC-3G, sequence (Q9HC16 whole entry): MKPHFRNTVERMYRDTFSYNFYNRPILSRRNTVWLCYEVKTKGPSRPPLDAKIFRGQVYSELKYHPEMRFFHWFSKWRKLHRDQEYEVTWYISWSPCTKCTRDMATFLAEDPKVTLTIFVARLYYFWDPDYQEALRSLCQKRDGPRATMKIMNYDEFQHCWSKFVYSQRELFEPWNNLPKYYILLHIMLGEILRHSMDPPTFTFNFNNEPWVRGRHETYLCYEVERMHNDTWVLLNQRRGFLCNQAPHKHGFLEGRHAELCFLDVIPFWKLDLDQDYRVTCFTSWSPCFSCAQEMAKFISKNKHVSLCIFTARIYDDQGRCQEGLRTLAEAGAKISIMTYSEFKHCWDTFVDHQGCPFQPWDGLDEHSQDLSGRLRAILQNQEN

[15] = target: DNA dC->dU-editing enzyme APOBEC-3A (Homo sapiens, UniProt P31941); experiment: SAR analysis of small molecule inhibitors of APOBEC3A DNA Deaminase via a fluorescence-based single-stranded DNA deaminase assay - Set 2.; type: functional; settings: read-out: IC50_Mean
DNA dC->dU-editing enzyme APOBEC-3A, sequence (P31941 whole entry): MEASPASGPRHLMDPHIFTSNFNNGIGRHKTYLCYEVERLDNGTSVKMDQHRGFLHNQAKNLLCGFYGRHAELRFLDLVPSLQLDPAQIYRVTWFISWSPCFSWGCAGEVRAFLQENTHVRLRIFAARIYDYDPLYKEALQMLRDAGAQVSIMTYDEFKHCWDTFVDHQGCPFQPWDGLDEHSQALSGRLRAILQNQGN

[16] = tested on: P388/ADR; experiment: cells; type: functional; settings: Mus musculus
[17] = tested on: P388; experiment: cells; type: functional; settings: Mus musculus
[18] = tested on: SN12K1; experiment: cells; type: functional; settings: Homo sapiens

COc1ccc(-n2c(C)c([N+](=O)[O-])c3ccc(O)c(CN(C)C)c32)cc1
AC50 [1]: 2.53 µM (active)

CCOc1cccc(=O)c2c(C)n(-c3ccc(C(=O)O)cc3)c(C)c12
AC50 [2]: > 150 µM (inactive) | IC50 [3]: 4.54 µM (active) | EC50 [4]: 29.6 µM (active) | EC50 [5]: 41.3 µM (active) | AC50 [6]: 17.2 µM (active)

CC(Sc1ccc(Cl)cc1)C(=O)Nc1ccccc1-c1ccccc1 (centres undefined)
IC50 [7]: 10.3 µM (not active) | IC50 [8]: 49.7 µM (inactive) | IC50 [9]: 4.77 µM (active) | IC50 [10]: 4.74 µM (active)

COc1cc(OC)cc(-c2nc3ccccc3c(=O)n2OC(=O)c2ccccc2C)c1
IC50 [8]: 21.4 µM (inactive) | IC50 [10]: 7.51 µM (active)

CCSc1nnc(N2C(=O)C(O)=C(C(=O)c3ccco3)C2c2cccc(OC)c2)s1 (centres undefined)
EC50 [11]: > 99 µM (inactive) | EC50 [12]: > 99 µM (inactive)

NC(=S)NN=C1CSSC1
EC50 [13]: 12.9 µM (inactive)

CN(Cc1ccccc1)C(=O)c1cc2ncc(Br)cn2n1
IC50 [14]: 77.8 µM (inactive) | IC50 [15]: 34.5 µM (inactive)

CN1c2c(O)nc(N)nc2NCC1CCNc1ccc(C(=O)NC(CCC(=O)O)C(=O)O)cc1 (centres undefined)
GI50 [16]: 2.49 µM (inactive) | GI50 [17]: 4.5 µM (inactive) | GI50 [18]: 5.5 µM (inactive)

CCCCCCNC(=O)C(C)C1CCC2(C)C=CC(=O)C(C)=C2C1O (centres undefined)
GI50 [16]: > 42.3 µM (inactive) | GI50 [17]: 62.5 µM (inactive) | GI50 [18]: > 100 µM (inactive)

O=C(NCc1ccccc1)c1cccc(COc2ccc3c(c2)CCC3)c1
AC50 [1]: 4.83 µM (active)

N=c1c[n+](N2CCOCC2)[n-]o1
EC50 [11]: > 99 µM (inactive) | EC50 [12]: 30.3 µM (inactive)

COc1cc([C@@H]2c3cc4c(cc3C[C@H]3COC(=O)[C@@H]32)OCO4)cc(OC)c1OC [DESOXYPODOPHYLLOTOXIN]
GI50 [16]: 0.0108 µM (active) | GI50 [17]: 0.005 µM (active) | GI50 [18]: 0.00596 µM (active)
